Values joined by “and” are separate entries in the source; they are usually repeats but may differ in a detail not shown here. Equal values may be shown once. “Also recorded” adds a separate entry of the source.
Experiments:
[1] = test system: early and late adolescent SI mice; assay: Resident-intruder test, aggressive behavior of socially isolated (SI) mice; format: in vivo, Swiss-Webster mice; details: for reduction in the number of attacks vs. basal value / EC50 dose, decrease of aggression: 60 min before test; for “Non-responders” Early SI mice (%) / “Non-responders” Late SI mice (%): decrease of aggression <=30% vs basal; for EC50 dose, decrease of aggression: i.p.
Excerpt: Male Swiss-Webster mice (Harlan Breeders) (18-30 g body weight), maintained under a 12-h dark/light cycle with food and water ad libitum were used for all experiments. Mice were housed individually in a cage of dimensions 24 cm×17 cm×12 cm. For these experiments, two mice experimental groups were used for the study of drug effect in different age conditions. The first group was isolated at 21 days (“early adolescent SI mice,” PND 21), while the second group at 45 days (“late adolescent SI mice,” PND 45). The animals were exposed to behavioral testing after 6 weeks of isolation. The vivarium temperature was kept at 24° C. and the humidity near 65%.
[…] All the drugs were dissolved in saline solution containing 0.5% Tween-80 (Sigma Aldrich, St. Louis, Mo., United States), and were injected intraperitoneally (i.p.), 60 min before behavioral tests.
To test aggression, a male intruder mouse of the same strain as the resident mouse, was placed in a resident home cage (24 cm×17 cm×12 cm) and resident-intruder interactions were videotaped for 10 min. Aggressive behavior of SI mice was characterized by an initial pattern of exploratory activity around the intruder, followed by rearing and tail rattle, accompanied within a few seconds by wrestling and/or a violent biting attacks. The total number of wrestling and attacks during the 10 min observation period was measured as previously described (Pinna et al., 2003, 2005), 60 min after drug administration. For every drug studied, SI mice were first exposed to three behavioral sessions, and then the average of basal aggression level for every single SI mouse was calculated; 2 days later, aggression levels following treatment were tested. Treated animals showing a reduction of the number of attacks less than 30% vs. the respective basal control values were considered as “low- to non-responders.”
Results are presented as means±SEMs unless otherwise indicated. Student's t-test, one-way ANOVA and two-way ANOVA repeated measures followed by Bonferroni post hoc test were performed to analyze experimental data; significance was set at p<0.05. EC50 values were calculated from dose-response curves analyzed by the “quantal dose-response: probits test” using the computer program of Tallarida and Murray equipped with a statistical package (Tallarida and Murray, 1987). Statistical comparisons among the different ECsos were performed with the “cohort package software.” (available at cohort.com).

[2] = test system: early and late adolescent SI mice; assay: Locomotor activity test; format: in vivo, Swiss-Webster mice; details: all doses tested, i.p., 60 min before test, 10 min recording
Experimental: BR351 (1-5 mg/kg) and BR297 (0.3125-2.5 mg/kg) were obtained from NeuroRhine Consortium (Strasbourgh, France). All the drugs were dissolved in saline solution containing 0.5% Tween-80 (Sigma Aldrich, St. Louis, Mo., United States), and were injected intraperitoneally (i.p.), 60 min before behavioral tests.
A computerized AccuScan 12 Animal Activity Monitoring System (Columbus Instruments, Columbus, Ohio, United States) assisted by VERSAMAX software (AccuScan Instruments, Columbus, Ohio, United States) was used to quantify locomotor activity (Pinna et al., 1997, 2006a). Each activity cage was made of a 20 cm×20 cm×20 cm Perspex box surrounded by horizontal and vertical infrared sensor beams. Horizontal sensors' beam interruptions were taken as a measure of horizontal activity.

[3] = test system: early and late adolescent SI mice; details: i.p., previously established in Pinna and Rasmusson, 2014; cited from earlier work
[4] = test system: post-partum depression patients; details: two-day course of intravenous infusion; cited from earlier work
[5] = early SI mice, single dose 2.5 mg/kg
[6] = early adolescent SI mice (PND 21)
[7] = late SI mice, single dose 2.5 mg/kg (given in mg)
[8] = late adolescent SI mice (PND 45)
[9] = early SI mice, single dose, dose not stated (FIG. 5 legend)
[10] = late SI mice, single dose, dose not stated (FIG. 5 legend)

CC(=O)[C@H]1CC[C@H]2[C@@H]3CC[C@H]4C[C@](C)(O)CC[C@]4(C)[C@H]3CC[C@]12C [GNX, ganaxolone, reference compound]
difference of anti-aggressive effect, late compared with early SI mice ([1]; 10 mg/kg i.p.): +197%
reduction in the number of attacks vs. basal value ([1]; early SI mice (PND 21), 10 mg/kg i.p.): −72%
“Non-responders” Early SI mice (%) ([1]; early SI mice, single dose 10 mg/kg (given in mg), 10 mg/kg): 25%
reduction in the number of attacks vs. basal value ([1]; late SI mice (PND 45), 10 mg/kg i.p.): −46%
“Non-responders” Late SI mice (%) ([1]; late SI mice, single dose 10 mg/kg (given in mg), 10 mg/kg): 15.38% and 15.4%
duration of anti-aggressive effect (time until aggression rebounded to basal values) ([1]; late SI mice, single dose 10 mg/kg (EC50 dose)): 5 days
effect on locomotor (exploratory) activity [2]: failed to alter locomotion patterns
EC50 dose [3]: 10 mg/kg

CC(=O)C1CC[C@H]2[C@@H]3CCC4C[C@H](O)CC[C@]4(C)[C@H]3CC[C@]12C (stereo partly shown) [Allo, allopregnanolone]
duration of symptom improvement [4]: 30 days
remission of post-partum depression, patients [4]: 70%
time to symptom improvement [4]: 60 h

CCCCCCCCCCCCCCCC(=O)NCCO [PEA, N-palmitoylethanolamine]
effect on locomotor (exploratory) activity [2]: not altered

C=CCO[C@@H]1CC[C@]2(C)C3CC[C@@]4(C)C(CC[C@@H]4C(C)=O)C3CC[C@H]2C1 (stereo partly shown) [BR351]
difference of anti-aggressive effect, late compared with early SI mice ([1]; 5 mg/kg i.p., trend, p=0.0801): +179%
reduction in the number of attacks vs. basal value ([1]; early SI mice (PND 21), 5 mg/kg i.p.): −56%
“Non-responders” Early SI mice (%) ([1]; early SI mice, single dose 1 mg/kg (given in mg)): 50.0%
“Non-responders” Early SI mice (%) ([1]; early SI mice, single dose 2.5 mg/kg (given in mg)): 20.0%
“Non-responders” Early SI mice (%) ([1]; early SI mice, single dose 5 mg/kg (given in mg), 5 mg/kg): 13.33% and 13.3%
duration of anti-aggressive effect (time until aggression rebounded to basal values) ([1]; early SI mice, single dose 1 mg/kg): rapidly extinguished
duration of anti-aggressive effect (time until aggression rebounded to basal values) [1, 5]: 5 days
duration of anti-aggressive effect (time until aggression rebounded to basal values) ([1]; early SI mice, single dose 5 mg/kg): 3 days
EC50 dose, decrease of aggression [1, 6]: 4.5 mg/kg
reduction in the number of attacks vs. basal value ([1]; late SI mice (PND 45), 5 mg/kg i.p.): −80%
“Non-responders” Late SI mice (%) ([1]; late SI mice, single dose 1 mg/kg (given in mg)): 54.6%
“Non-responders” Late SI mice (%) [1, 7]: 40.0%
“Non-responders” Late SI mice (%) ([1]; late SI mice, single dose 5 mg/kg (given in mg), 5 mg/kg): 8.33% and 8.3%
duration of anti-aggressive effect (time until aggression rebounded to basal values) ([1]; late SI mice, single dose 1 mg/kg): 1 days
duration of anti-aggressive effect (time until aggression rebounded to basal values) ([1]; late SI mice, single dose 2.5 mg/kg): 5 days
duration of anti-aggressive effect (time until aggression rebounded to basal values) ([1]; late SI mice, single dose 5 mg/kg): 5 days
EC50 dose, decrease of aggression [1, 8]: 3.75 mg/kg
effect on locomotor (exploratory) activity [2]: failed to alter locomotion patterns

C=CCO[C@H]1CC[C@]2(C)C3CC[C@@]4(C)C(CC[C@@H]4C(C)=O)C3CC[C@H]2C1 (stereo partly shown) [BR297]
difference of anti-aggressive effect, late compared with early SI mice ([1]; 2.5 mg/kg i.p., trend, p=0.108): +235%
reduction in the number of attacks vs. basal value ([1]; early SI mice (PND 21), 0.3125 mg/kg i.p.): −59%
reduction in the number of attacks vs. basal value ([1]; early SI mice (PND 21), 0.625 mg/kg i.p.): −61%
reduction in the number of attacks vs. basal value ([1]; early SI mice (PND 21), 2.5 mg/kg i.p.): −70%
“Non-responders” Early SI mice (%) ([1]; early SI mice, single dose 0.3125 mg/kg (given in mg)): 30.0%
“Non-responders” Early SI mice (%) ([1]; early SI mice, single dose 0.625 mg/kg (given in mg)): 21.4%
“Non-responders” Early SI mice (%) ([1]; early SI mice, single dose 2.5 mg/kg (given in mg), 2.5 mg/kg): 6.25% and 6.3%
duration of anti-aggressive effect (time until aggression rebounded to basal values) ([1]; early SI mice, single dose 0.3125 mg/kg): 3 days
duration of anti-aggressive effect (time until aggression rebounded to basal values) ([1]; early SI mice, single dose 0.625 mg/kg): 7 days
duration of anti-aggressive effect (time until aggression rebounded to basal values) [1, 5]: 7 days
duration of anti-aggressive effect (time until aggression rebounded to basal values) [1, 9]: 7 days
EC50 dose, decrease of aggression [1, 6]: 0.25 mg/kg
reduction in the number of attacks vs. basal value ([1]; late SI mice (PND 45), 0.3125 mg/kg i.p.): −60%
reduction in the number of attacks vs. basal value ([1]; late SI mice (PND 45), 0.625 mg/kg i.p.): −63%
reduction in the number of attacks vs. basal value ([1]; late SI mice (PND 45), 2.5 mg/kg i.p.): −91%
“Non-responders” Late SI mice (%) ([1]; late SI mice, single dose 0.3125 mg/kg (given in mg)): 18.2%
“Non-responders” Late SI mice (%) ([1]; late SI mice, single dose 0.625 mg/kg (given in mg)): 18.2%
“Non-responders” Late SI mice (%) [1, 7]: 0%
duration of anti-aggressive effect (time until aggression rebounded to basal values) ([1]; late SI mice, single dose 0.3125 mg/kg): 3 days
duration of anti-aggressive effect (time until aggression rebounded to basal values) ([1]; late SI mice, single dose 0.625 mg/kg): 9 days
duration of anti-aggressive effect (time until aggression rebounded to basal values) [1, 10]: 9 days
EC50 dose, decrease of aggression [1, 8]: 0.25 mg/kg
effect on locomotor (exploratory) activity [2]: failed to alter locomotion patterns

CNCC[C@H](Oc1ccc(C(F)(F)F)cc1)c1ccccc1 [S-FLX, S-fluoxetine, reference compound]
duration of anti-aggressive effect (time until aggression rebounded to basal values) ([1]; early SI mice, single dose 0.375 mg/kg): 1 days
duration of anti-aggressive effect (time until aggression rebounded to basal values) ([1]; early SI mice, single dose 0.75 mg/kg): 3 days
duration of anti-aggressive effect (time until aggression rebounded to basal values) [1, 9]: 3 days
reduction in the number of attacks vs. basal value ([1]; late SI mice (PND 45), 0.75 mg/kg i.p.): −52%
duration of anti-aggressive effect (time until aggression rebounded to basal values) ([1]; late SI mice, single dose 0.375 mg/kg): 1 days
duration of anti-aggressive effect (time until aggression rebounded to basal values) ([1]; late SI mice, single dose 0.75 mg/kg): 3 days
duration of anti-aggressive effect (time until aggression rebounded to basal values) [1, 10]: 3 days
effect on locomotor (exploratory) activity [2]: did not reduce exploratory activity; also recorded: failed to alter locomotion patterns

Reference: patent publication US11266663B2, “Treatment of neuropsychiatric disorders with neurosteroids and analogues thereof” (THE BOARD OF TRUSTEES OF THE UNIVERSITY OF ILLINOIS, priority 2017, dated 2022)
